Target: T1, recombinant cGAS (aa147-522) (Homo sapiens, UniProt Q8N884)
T1 construct: recombinant cGAS (aa147-522); His6-SUMO (N, cleaved yes); made in house; host or cells: E. coli BL21/pLys
Assay: In vitro assay for inhibition of cGAS activity (ATP consumption, Kinase Glo)
Assay type: biochemical
Settings: 37° C. 20 minutes, read-out: Activity (Inhibition of cGAS enzyme activity in vitro, IC50)
Procedure: cDNA encoding full-length or amino acids 147-520 of human cGAS is inserted into a modified pET28a vector containing an in-frame His6-SUMO tag. The E. coli strain BL21/pLys harboring the plasmid is induced with 0.5 mM IPTG at 18° C. overnight. His6-SUMO tag was removed by a SUMO proease following purification of the HiS-SUMO-cGAS as described previously (Sun et al, 2013, Science 339, 786).
A40 μL mixture containing 1.5 ng/μL of recombinant cGAS (aa147-522) and serial dilutions of a test compound or DMSO was added to a 96-well plate and incubated at 37° C. for 20 minutes. At the end of reaction, 20 μL of Kinase Glo (Promega) was added and chemiluminescence measured with a luminometer. Inhibitory effect of a compound is evaluated by plotting percentage of ATP consumption against logarithm of compound concentrations. IC50 value was calculated using Graphpad (Sigma).

T1 sequence (Q8N884 147-522): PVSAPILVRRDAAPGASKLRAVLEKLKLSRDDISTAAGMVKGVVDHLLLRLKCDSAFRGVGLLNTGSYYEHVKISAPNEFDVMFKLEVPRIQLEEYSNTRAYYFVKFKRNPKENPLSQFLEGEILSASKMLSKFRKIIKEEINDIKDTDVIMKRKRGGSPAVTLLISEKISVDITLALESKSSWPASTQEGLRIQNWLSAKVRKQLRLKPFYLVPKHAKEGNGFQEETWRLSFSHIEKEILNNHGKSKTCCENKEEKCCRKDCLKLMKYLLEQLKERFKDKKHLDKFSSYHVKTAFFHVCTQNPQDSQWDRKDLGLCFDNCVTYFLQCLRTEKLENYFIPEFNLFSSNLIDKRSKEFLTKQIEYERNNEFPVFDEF

SMILES	IC50
CNc1ncc(C(C)Oc2cc(/C=C3\SC(=O)N(C)C3=O)c(Br)cc2O)cn1 (stereo not drawn) [Ex105]	0.5 to 10 µM
CN1C(=O)S/C(=C\c2cc3oc(=O)[nH]c3cc2Br)C1=O [Ex25]	0.5 to 10 µM
CN1C(=O)S/C(=C\c2cc(OCc3cnc(NCc4ccncc4)nc3)c(O)c(F)c2Br)C1=O [Ex190]	≤ 0.5 µM
CN1C(=O)S/C(=C\c2cc(OCc3cnc(N4CCOCC4)nc3)c(O)cc2Br)C1=O [Ex166]	≥ 10 µM
CN1C(=O)S/C(=C\c2cc(C(C)(F)F)c(O)cc2Br)C1=O [Ex210]	0.5 to 10 µM
N=C1NC(=O)/C(=C/c2ccncc2)S1 [Ex9]	≥ 10 µM
CN1C(=O)S/C(=C\c2cc(OCc3cnc(-n4ccnc4)nc3)c(O)cc2Br)C1=O [Ex168]	0.5 to 10 µM
CN1C(=O)S/C(=C\c2cc(OCc3cnc(N4CCCC4)nc3)c(O)cc2Br)C1=O [Ex163]	≥ 10 µM
O=C1/C(=C/c2cc(OCc3cnc(NCc4ccccn4)nc3)c(O)cc2Br)Sc2ncccc21 [Ex198]	≤ 0.5 µM
CN1C(=O)S/C(=C\c2cc(OCc3cnc(-n4cccn4)nc3)c(O)cc2Br)C1=O [Ex169]	0.5 to 10 µM
CN1C(=O)S/C(=C\c2cc(Oc3cnc(N)s3)c(O)c(F)c2Br)C1=O [ExB30]	0.5 to 10 µM
CC(C)Nc1ncc(COc2cc(/C=C3\SC(=O)N(C)C3=O)c(Br)cc2O)cn1 [Ex150]	0.5 to 10 µM
CN1C(=O)S/C(=C\c2cc(OCc3cnc(NCc4ccccn4)nc3)c(O)c(F)c2Br)C1=O [Ex188]	0.5 to 10 µM
COc1nc(SC)ncc1COc1cc(/C=C2\SC(=O)N(C)C2=O)c(Br)cc1O [Ex99]	0.5 to 10 µM
C#Cc1cc(O)c(OC)cc1/C=C1\SC(=O)N(C)C1=O [Ex19]	≥ 10 µM
CN1C(=O)S/C(=C\c2cc(OCc3cnc(C4CCNCC4)nc3)c(O)cc2Br)C1=O [Ex95]	0.5 to 10 µM
O=C1NC(=O)/C(=C/c2ccncc2)N1 [Ex14]	0.5 to 10 µM
Cc1nc(N)ncc1C(C)Oc1cc(/C=C2\SC(=O)N(C)C2=O)c(Br)cc1O (stereo not drawn) [Ex183]	0.5 to 10 µM
CN1C(=O)S/C(=C\c2cc(OCc3cncc(NCc4ccncc4)c3)c(O)cc2Br)C1=O [Ex228]	≥ 10 µM
O=C1/C(=C/c2cc3oc(=O)[nH]c3cc2Br)Sc2ncccc21 [Ex26]	0.5 to 10 µM

SMILES	IC50
CN1C(=O)S/C(=C\c2cc(OCc3ccc(NC(=O)c4cccnc4)nc3)c(O)cc2Br)C1=O [Ex55]	0.5 to 10 µM
CN1CCN(c2ncc(COc3cc(/C=C4\SC(=O)N(C)C4=O)c(Br)cc3O)cn2)CC1 [Ex167]	0.5 to 10 µM
CN1C(=O)S/C(=C\c2cc(OCc3cncc(N)c3)c(O)cc2Br)C1=O [Ex132]	0.5 to 10 µM
CC(C)c1cc(/C=C2\Sc3ncccc3C2=O)c(Br)cc1O [ExB19]	≥ 10 µM
CC(Oc1cc(/C=C2\Sc3ncccc3C2=O)c(Br)cc1O)c1cccnc1 (stereo not drawn) [Ex119]	0.5 to 10 µM
CN1C(=O)S/C(=C\c2cc(CCc3ccc([S+](C)[O-])cc3)c(O)cc2Br)C1=O (stereo not drawn) [ExB38]	≥ 10 µM
CN1C(=O)S/C(=C\c2cc3c(Cc4cnc(N)nc4)c[nH]c3cc2Br)C1=O [Ex208]	0.5 to 10 µM
CN1C(=O)S/C(=C\c2cc(OCC(=O)Nc3nncs3)c(O)c(F)c2Br)C1=O [ExB1]	0.5 to 10 µM
COc1cc(/C=C2\Sc3ncc(F)cc3C2=O)c(Br)cc1O [Ex48]	≤ 0.5 µM
CN1C(=O)S/C(=C\c2cc(OCc3cncc(NCc4ccccn4)c3)c(O)cc2Br)C1=O [Ex227]	≥ 10 µM
CNc1ncc(C(C)Oc2cc(/C=C3\SC(=O)N(C)C3=O)c(Br)c(F)c2O)cn1 (stereo not drawn) [Ex111]	0.5 to 10 µM
CC(C)CNc1cncc(COc2cc(/C=C3\SC(=O)N(C)C3=O)c(Br)cc2O)c1 [Ex229]	≥ 10 µM
COc1cc(/C=C2\Sc3ncccc3C2=O)c(C)cc1O [Ex76]	0.5 to 10 µM
CC(C)C(=O)Nc1cncc(COc2cc(/C=C3\SC(=O)N(C)C3=O)c(Br)cc2O)c1 [Ex226]	≥ 10 µM
CC(Oc1cc(/C=C2\SC(=O)N(C)C2=O)c(Br)c(F)c1O)c1cncnc1 (stereo not drawn) [Ex192]	0.5 to 10 µM
CSc1cc(/C=C2\SC(=O)N(C)C2=O)c(Br)cc1O [Ex69]	0.5 to 10 µM
O=C1/C(=C/c2cc(C(F)(F)F)c(O)cc2Br)Sc2ncccc21 [ExB17]	≤ 0.5 µM
CC(C)CNc1ncc(COc2cc(/C=C3\SC(=O)N(C)C3=O)c(Br)cc2O)cn1 [Ex151]	0.5 to 10 µM
O=C1NC(=O)/C(=C/c2cncnc2)S1 [Ex8]	≥ 10 µM

Results, then the molecule that gave them:

IC50	SMILES
0.5 to 10 µM	CN1C(=O)S/C(=C\c2cc(OCc3ccc4cccnc4c3)c(O)cc2Br)C1=O [Ex175]
0.5 to 10 µM	CC(=O)c1cc(/C=C2\SC(=O)N(C)C2=O)c(Br)cc1O [Ex59]
0.5 to 10 µM	CC(C)COc1cc(/C=C2\SC(=O)N(C)C2=O)c(Br)cc1O [Ex85]
0.5 to 10 µM	CN1C(=O)S/C(=C\c2cc(OCc3cnc(-c4ccccc4)nc3)c(O)cc2Br)C1=O [Ex145]
≥ 10 µM	COc1cc(/C=C2\SC(=O)N(C)C2=O)c(Br)cc1NS(C)(=O)=O [Ex22]
0.5 to 10 µM	CN1C(=O)S/C(=C\c2cc(Oc3ccc(=O)[nH]c3)c(O)cc2Br)C1=O [Ex231]
0.5 to 10 µM	CN1C(=O)S/C(=C\c2cc3cc[nH]c3cc2Br)C1=O [Ex66]
≥ 10 µM	COc1cc(/C=C2\SC(=O)N(C)C2=O)c(Br)cc1NS(=O)(=O)c1ccc(C)cc1 [Ex24]
0.5 to 10 µM	CN1C(=O)S/C(=C\c2ccc(O)cc2Br)C1=O [Ex52]
0.5 to 10 µM	CN1C(=O)S/C(=C\c2cc(OCCc3ccncc3)c(O)cc2Br)C1=O [Ex179]
0.5 to 10 µM	CN1C(=O)S/C(=C\c2cc(OCc3cc[nH]c(=O)c3)c(O)cc2Br)C1=O [Ex134]
≥ 10 µM	COc1cc(/C=C2\SC(=O)N(C)C2=O)c(Br)cc1NS(=O)(=O)c1ccccc1 [Ex23]
0.5 to 10 µM	CN1C(=O)S/C(=C\c2cc(OCc3ccccc3)c(O)cc2Br)C1=O [Ex88]
0.5 to 10 µM	CN1C(=O)S/C(=C\c2cc(OCC3CCN(C(=O)c4ccccc4)CC3)c(O)cc2Br)C1=O [Ex127]
≥ 10 µM	CN1C(=O)S/C(=C\c2cc(Oc3cccc4ncccc34)c(O)cc2Br)C1=O [ExB5]
0.5 to 10 µM	COc1ncc(COc2cc(/C=C3\SC(=O)N(C)C3=O)c(Br)cc2O)cn1 [Ex143]
0.5 to 10 µM	COc1cc(/C=C2\SC(=O)N(C)C2=O)c(Br)cc1-c1nn[nH]n1 [Ex35]
0.5 to 10 µM	CCc1cc(/C=C2\SC(=O)N(C)C2=O)c(Br)cc1O [Ex58]
≥ 10 µM	COc1cccc(Oc2cc(/C=C3\SC(=O)N(C)C3=O)c(Br)cc2O)c1N [ExB11]
0.5 to 10 µM	COc1cc(/C=C2\SC(=O)N(C)C2=O)c(Br)cc1Oc1cnc(NCc2cccnc2)s1 [Ex207]
0.5 to 10 µM	CN1C(=O)S/C(=C\c2cc(OCc3ccnc4ccccc34)c(O)cc2Br)C1=O [Ex178]

Reference: patent US12065416B2, “cGAS antagonist compounds” (IMMUNESENSOR THERAPEUTICS, INC., priority 2016, dated 2024)
